Type in all cases: cell-based
One assay concerns HIV-1 BaL (CCR5 using). Kind of assay: Inhibition of HIV-1 (BaL) replication in PHA-stimulated PBMC's (MTT). As to conditions: Human immunodeficiency virus 1, BAL, MTT assay. As to the method: Compounds were tested for their ability to inhibit HIV-1 replication in MT-4 cells or PBMC's (peripheral blood mononucleocytes) using published procedures (for example, see: Labrosse et al. J. Virol. 1998, 6381-6388; Simmons et al. J. Virol. 1998, 8453-8457; Donzella et al. Nature Medicine 1998, 72-77; Schols et al. J. Exp. Med. 1997, 1383-1388; De Clercq et al. Antiviral Res. 1997, 147-156; and Bridger et al. U.S. patent application Ser. No. 09/111,895). In addition to the above references, experimental methods for performing anti-viral assays can also be found in: Bridger et al. J. Med. Chem. 1995, 38, 366-378; Bridger et al. J. Med. Chem. 1996, 39, 109-119; Bridger et al. U.S. Pat. No. 5,698,546; Bridger et al. U.S. Pat. No. 5,583,131; Bridger et al. U.S. Pat. No. 5,817,807; De Clercq et al. Antimicrob. Agents and Chemother. 1994, 38, 668-674.
The HIV-1 strain BaL is M-tropic (macrophage tropic) strain that exclusively uses CCR5 as a co-receptor for entry into cells. PBMC's (from healthy donors) express all chemokine receptors including CXCR4 and CCR5.
(In general: Tetrazolium assays rely on reduction of a dye to a coloured formazan, in cell work by metabolically active cells.)

For a further assay, the system named is HIV-1 NL4.3 or IIIB. Put plainly: Inhibition of HIV-1 (NL4.3 or IIIB) replication in MT-4 cells (MTT). To be noted: Human immunodeficiency virus 1, IIIB, MT4, read-out: EC50, inhibition of HIV-1 NL4.3 or IIIB replication. In outline: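 CXCR4-tropic virus infected MT-4 cells at MOI 0.01 (100× CCID50) across a range of compound concentrations, with cytotoxicity run in parallel. Viable cells counted by MTT after 5 days. EC50 is the concentration protecting 50% of infected cells from viral cytopathicity.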

In assay [1] the test system is SDF-1α induced Ca flux in SUP-T1 cells. Kind of assay: Inhibition of SDF-1α induced Ca flux in SUP-T1 cells (FLIPR). To be noted: Homo sapiens, at 20 μg/mL, read-out: inhibited SDF-1α induced Ca flux.
Assay [2] deals with RANTES induced Ca flux in U87.CCR5 cells. Kind of assay: Inhibition of RANTES induced Ca flux in U87.CCR5 cells (FLIPR). To be noted: U-87-CCR5, at 20 μg/mL, read-out: inhibited RANTES induced Ca flux. As for the experimental part:
Loading dye: Fluo-3, AM (Molecular Probes F-1241) is dissolved in anhydrous DMSO and stored frozen in aliquots. To increase the solubility of the dye in the loading medium, 10% (w/v) pluronic acid (Molecular Probes F-127) is added to the Fluo-3 stock solution immediately before use.
HBSS+20 mM Hepes buffer+0.2% BSA, pH 7.4. HBSS 10× [(w/o phenol red and sodium bicarbonate (Gibco 14 065-049)]; Hepes buffer 1M (Gibco 15 630-056), BSA (Sigma A3675). The flux buffer is vacuum-filtered and stored refrigerated for a maximum of 5 days. Before use in the experiment, the buffer is warmed at 37° C. in a waterbath.
The test compounds were diluted in flux buffer and added to 4 wells of a black microplate (4 parallel measurements per compound).
The chemokines are diluted in flux buffer to concentrations that are 4-fold higher than the desired concentrations required for stimulation of the cells (i.e. 2.5 nM for SDF-1α and 0.6 nM for RANTES). The chemokines were added to untreated 96-well Sero well compound plates (International Medical, Sterilin code 611F96). In the negative control well's (baseline monitoring), flux buffer is added instead of chemokine. As a positive control to check for dye loading efficiency, 20 μM digitonin (final concentration) was also included. The agonist plate was incubated in the FLIPR (37° C.) for 15-30 min.
The FLIPR settings (camera exposure time and laser power) are adjusted to obtain initial fluorescence values between 8,000 and 10,000 units. After monitoring a 20 second-baseline, the agonist (chemokine) (50 μL) is added by automatic pipettor with black pipette tips. Fluorescence is measured simultaneously in all wells of the microplate every 2 seconds (first 2 min) and thereafter every 6 seconds (additional 2 min). The average ca-flux measured in each set of 4 identical wells (one test compound) was calculated by the FLIPR software.
U87.CCR5 cells were seeded into the black microplates (Costar 3603) on the day before the experiment. The culture medium was removed from the cells and 100 μL of loading medium (DMEM+10% FBS+4 μM Fluo-3, AM) was added to each well and the plate was incubate at 37° C. for 45 min. The loading medium was then removed an the cells were washed twice with flux buffer using the CELL WASH microplate washer (Labsystems) followed by incubation in flux buffer for 10 min. at room temperature (the washing procedure was repeated twice). Finally, the wash buffer was removed from the microplate wells and 150 μL of the test compound, diluted in flux buffer to the desired concentration. The microplate was then incubated in the FLIPR drawer for 10 min. prior to testing. Measurements were performed as described above.
The compounds of the current invention were tested for inhibition of RANTES induced Ca flux in U87.CCR5 cells.

A word on the EC50: it is the midpoint of the concentration-response curve. Consider `c1ccc(CNCc2ccc(CN(Cc3ccccn3)CC3CCCc4cccnc43)cc2)nc1` (stereo not drawn) [Example 88, N,N′-bis(2-pyridinylmethyl)-N′-[(5,6,7,8-tetrahydro-8-quinolinyl)methyl]-1,4-benzenedimethanamine], for which the EC50 in the assay on HIV-1 BaL (CCR5 using) and in the assay on HIV-1 NL4.3 or IIIB was less than 20 µg/mL throughout. Moreover, in assay [1], the inhibition at 20 µg/mL was greater than 20%.

In the case of `CC1c2ccccc2CCC1NCc1ccc(CNCc2ccccn2)cc1` (stereo not drawn) [Example 37, N-(2-pyridinylmethyl)-N′-(1-methyl-1,2,3,4-tetrahydro-2-naphthalenyl)-1,4-benzenedimethanamine], the EC50 in the assay on HIV-1 BaL (CCR5 using) and in the assay on HIV-1 NL4.3 or IIIB was less than 20 µg/mL throughout. Besides, the inhibition at 20 µg/mL in assay [1] was greater than 20%.

With `c1ccc(CNCc2ccc(CN(Cc3ccco3)C3CCCc4cccnc43)cc2)nc1` (stereo not drawn) [Example 29, N-(2-pyridinylmethyl)-N′-[2-furanylmethyl]-N′-(5,6,7,8-tetrahydro-8-quinolinyl)-1,4-benzenedimethanamine], the half-maximal effective concentration (EC50) with HIV-1 BaL (CCR5 using) and in the assay on HIV-1 NL4.3 or IIIB was less than 20 µg/mL throughout. Also, the inhibition at 20 µg/mL in assay [1] was greater than 20%.

Take `c1ccc(CNCCN(Cc2ccc(CNCc3ccccn3)cc2)C2CCCc3cccnc32)cc1` (stereo not drawn) [Example 30, N-(2-pyridinylmethyl)-N′-[2-[(phenylmethyl)amino]ethyl]-N′-(5,6,7,8-tetrahydro-8-quinolinyl)-1,4-benzenedimethanamine]: the EC50 with HIV-1 BaL (CCR5 using) and in the assay with HIV-1 NL4.3 or IIIB was less than 20 µg/mL in each case. The inhibition at 20 µg/mL in assay [2] and in assay [1] was greater than 20% each time.

In the assay with HIV-1 BaL (CCR5 using), `c1ccc(CNCc2ccc(CNc3cccc4ccccc34)cc2)nc1` [Example 5, N-(2-pyridinylmethyl)-N′-(1-naphthalenyl)-1,4-benzenedimethanamine] came in with an EC50 of less than 20 µg/mL. Further, in assay [2], the inhibition at 20 µg/mL is greater than 20%.

As for `N[C@@H]1CCC[C@H]1N(Cc1ccc(CNCc2ccccn2)cc1)C1CCCc2cccnc21` (relative stereo) [Example 71, N-(2-pyridinylmethyl)-N′-(trans-2-aminocyclopentyl)-N′-(5,6,7,8-tetrahydro-8-quinolinyl)-1,4-benzenedimethanamine], the concentration for a half-maximal effect (EC50) in the assay with HIV-1 BaL (CCR5 using) and with HIV-1 NL4.3 or IIIB was less than 20 µg/mL each time. In assay [2], the inhibition at 20 µg/mL is greater than 20%.

In the case of `c1ccc(CNCc2ccc(CN(Cc3c[nH]cn3)C3CCCc4cccnc43)cc2)nc1` (stereo not drawn) [Example 17, N-(2-pyridinylmethyl)-N′-(1H-imidazol-4-ylmethyl)-N′-(5,6,7,8-tetrahydro-8-quinolinyl)-1,4-benzenedimethanamine], the EC50 in the assay with HIV-1 BaL (CCR5 using) and in the assay with HIV-1 NL4.3 or IIIB was less than 20 µg/mL each time. For the same compound, in assay [1], the inhibition at 20 µg/mL is greater than 20%.

`Oc1cccc2c1CC(N(Cc1ccc(CNCc3ccccn3)cc1)Cc1ncc[nH]1)CC2` (stereo not drawn) [Example 42, N-(2-pyridinylmethyl)-N′-(1H-imidazol-2-ylmethyl)-N′-(8-hydroxy-1,2,3,4-tetrahydro-2-naphthalenyl)-1,4-benzenedimethanamine]: the EC50 in the assay on HIV-1 BaL (CCR5 using) and in the assay on HIV-1 NL4.3 or IIIB was less than 20 µg/mL each time.

For `c1ccc(CNCc2ccc(CN(Cc3ncc[nH]3)C3CCCc4ncccc43)cc2)nc1` (stereo not drawn) [Example 14, N-(2-pyridinylmethyl)-N′-(1H-imidazol-2-ylmethyl)-N′-(5,6,7,8-tetrahydro-5-quinolinyl)-1,4-benzenedimethanamine], the EC50 with HIV-1 BaL (CCR5 using) and in the assay with HIV-1 NL4.3 or IIIB was less than 20 µg/mL in each case.

Regarding `c1ccc(-c2ccc3c(n2)C(NCc2ccc(CNCc4ccccn4)cc2)CCC3)cc1` (stereo not drawn) [Example 11, N-(2-pyridinylmethyl)-N′-(2-phenyl-5,6,7,8-tetrahydro-8-quinolinyl)-1,4-benzenedimethanamine], the concentration for a half-maximal effect (EC50) in the assay on HIV-1 BaL (CCR5 using) and in the assay with HIV-1 NL4.3 or IIIB was less than 20 µg/mL throughout. Also, the inhibition at 20 µg/mL in assay [2] is greater than 20%.

In the case of `c1ccc(CCN(Cc2ccc(CNCc3ccccn3)cc2)C2CCCc3cccnc32)nc1` (stereo not drawn) [Example 66, N-(2-pyridinylmethyl)-N′-[2-(2-pyridinyl)ethyl]-N′-(5,6,7,8-tetrahydro-8-quinolinyl)-1,4-benzenedimethanamine], the EC50 in the assay on HIV-1 BaL (CCR5 using) and in the assay on HIV-1 NL4.3 or IIIB was less than 20 µg/mL throughout. Also, the inhibition at 20 µg/mL in assay [1] was greater than 20%.

Turning to `c1ccc(-c2ccc3c(n2)C(N(Cc2ccc(CNCc4ccccn4)cc2)Cc2ccccn2)CCC3)cc1` (stereo not drawn) [Example 12, N,N′-bis(2-pyridinylmethyl)-N′-(2-phenyl-5,6,7,8-tetrahydro-8-quinolinyl)-1,4-benzenedimethanamine], the concentration giving a half-maximal response (EC50) in the assay with HIV-1 BaL (CCR5 using) and with HIV-1 NL4.3 or IIIB was less than 20 µg/mL in each case. The inhibition at 20 µg/mL in assay [1] is greater than 20%.

On to `c1ccc(CNCc2ccc(CN(C3CCNC3)C3CCCc4cccnc43)cc2)nc1` (stereo not drawn) [Example 32, N-(2-pyridinylmethyl)-N′-3-pyrrolidinyl-N′-(5,6,7,8-tetrahydro-8-quinolinyl)-1,4-benzenedimethanamine], for which the concentration for a half-maximal effect (EC50) in the assay on HIV-1 BaL (CCR5 using) and in the assay with HIV-1 NL4.3 or IIIB was less than 20 µg/mL throughout.

`Fc1cccc2c1CC(NCc1ccc(CNCc3ccccn3)cc1)CC2` (stereo not drawn) [Example 43, N-(2-pyridinylmethyl)-N′-(8-Fluoro-1,2,3,4-tetrahydro2-naphthalenyl)-1,4-benzenedimethanamine]: the EC50 in the assay on HIV-1 BaL (CCR5 using) and in the assay on HIV-1 NL4.3 or IIIB was less than 20 µg/mL throughout. In addition, the inhibition at 20 µg/mL in assay [1] is greater than 20%.

(Values after patent US6750348B1, “Chemokine receptor binding heterocyclic compounds” (AnorMED, Inc., priority 1999, dated 2004).)
